Common to all, as to format: in vivo
Assay [1] has as its system Phytophthora infestans. Conditions: tomatoes, preventive, evaluated 3 days after inoculation.
Assay [2] has as its system Sphaerotheca fuliginea. Nature of the assay: Sphaerotheca test (cucumbers)/preventive. The following applies: preventive, evaluated 7 days after inoculation. The source says:
Sphaerotheca Test (Cucumbers)/Preventive

In assay [3] the test system is Alternaria solani. Put plainly: Alternaria test (tomatoes)/preventive. The following applies: preventive, evaluated 3 days after inoculation. The source says: Alternaria Test (Tomatoes)/Preventive
In assay [4] the test system is Venturia inaequalis. Put plainly: Venturia test (apples)/preventive. The following applies: 100 ppm a.i., preventive, evaluated 10 days after inoculation. The source says: Venturia Test (Apples)/Preventive
In assay [5] the test system is Botrytis cinerea. Put plainly: Botrytis test (beans)/preventive. Conditions: 10 ppm a.i., preventive, lesion size 2 days after inoculation. An excerpt:
Botrytis Test (Beans)/Preventive

Structures can show the parent of a compound that is named as a salt. Where two headings read alike, the source gives them in different places.

For the compound `CCCOC(=O)NCCCN(C)C` [F220 propamocarb-HCl, propamocarb hydrochloride], the “Efficacy in % found” value came out at 3% in assay [1] (400 ppm a.i.); 0% in assay [2] (400 ppm a.i.); 30% in assay [3] (Table D1, 200 ppm a.i.).
For the compound `COCC(=O)N(c1c(C)cccc1C)C(C)C(=O)OC` (stereo not drawn) [F241 metalaxyl, metalaxyl], in assay [3] (Table D2, 100 ppm a.i.), the “Efficacy in % found” value stood at 8%.
In the case of `N#Cc1c[nH]cc1-c1cccc2c1OC(F)(F)O2` [F248 fludioxonil, fludioxonil], the “Efficacy in % found” value in assay [1] (100 ppm a.i.) is listed as 12%; in assay [4], 0%; in assay [2] (100 ppm a.i.), 83%; in assay [5], 87%.
For “metalaxyl-M (mefenoxam) [F242 mefenoxam]”, the “Efficacy in % found” value in assay [3] (Table D2, 100 ppm a.i.) is recorded as 0%.
